pIC50: −log10 of the molar value.
Target: factor Xa (Homo sapiens, UniProt P00742)
Experiment: Inhibition of factor Xa
Assay type: biochemical
Conditions: Affinity to receptors
Text: The inhibition of factor Xa by the compounds according to the invention and the measurement of the anticoagulant and antithrombotic activity can be determined by conventional in-vitro or in-vivo methods. A suitable method is described, for example, by J. Hauptmann et al. in Thrombosis and Haemostasis 1990, 63, 220-223.
The inhibition of factor Xa can be measured, for example by the method of T. Hara et al. in Thromb. Haemostas. 1994, 71, 314-319.

Chain of factor Xa (P00742 235-488 limits assumed): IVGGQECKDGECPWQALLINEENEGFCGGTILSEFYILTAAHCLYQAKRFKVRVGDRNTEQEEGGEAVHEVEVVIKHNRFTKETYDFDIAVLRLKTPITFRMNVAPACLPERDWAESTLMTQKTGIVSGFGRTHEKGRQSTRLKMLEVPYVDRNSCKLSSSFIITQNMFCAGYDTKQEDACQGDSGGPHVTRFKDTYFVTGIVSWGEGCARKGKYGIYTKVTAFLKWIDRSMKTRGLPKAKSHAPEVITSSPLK
Chain of factor Xa (P00742 41-179 partner limits assumed): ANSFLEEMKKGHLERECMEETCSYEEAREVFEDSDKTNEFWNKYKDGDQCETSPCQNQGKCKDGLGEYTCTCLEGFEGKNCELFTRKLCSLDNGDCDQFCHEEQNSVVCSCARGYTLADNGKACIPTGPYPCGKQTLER

pIC50	SMILES
6.52	CC(C)CN(Cc1cccc(C(=N)N)c1)C(=O)C(=O)Nc1ccc(-c2ccccc2S(=O)(=O)NC(C)(C)C)cc1 [Example 1g, N-(2′-tert-butylsulfamoylbiphenyl-4-yl)-N′-(3-amidinobenzyl)-N′-isobutyloxalamide]
5.46	COC(=O)NC(=N)c1cccc(CN(CC(C)C)C(=O)C(=O)Nc2ccc(-c3ccccc3S(C)(=O)=O)cc2)c1 [Example 4, Methyl [imino-(3-{[isobutyl-(2′-methanesulfonylbiphenyl-4-ylaminooxalyl)amino]methyl}phenyl)methyl]carbamate]
8.02	CC(C)CN(Cc1cccc(C(=N)N)c1)C(=O)C(=O)Nc1ccc(-c2ccccc2S(C)(=O)=O)cc1 [Example 3, N-(3-amidinobenzyl)-N-isobutyl-N′-(2′-methanesulfonylbiphenyl-4-yl)oxalamide]

The remaining lines, values behind:

SMILES	pIC50
CC(C)CN(Cc1cccc(C(=N)N)c1)C(=O)C(=O)Nc1ccc(-c2ccc(C(=N)N)cc2)cc1 [Example 5, N-(3-amidinobenzyl)-N′-(4′-amidinobiphenyl-4-yl)-N-isobutyloxalamide]	6.00
CC(C)CN(Cc1cccc(C(=N)N)c1)C(=O)C(=O)Nc1ccc(-c2ccc(CN)cc2)cc1 [Example 6, N-(4′-Aminomethylbiphenyl-4-yl)-N′-(3-amidinobenzyl)-N′-isobutyloxalamide]	5.82
CC(C)CN(Cc1cccc(C(=N)N)c1)C(=O)C(=O)Nc1ccc(-c2ccccc2S(N)(=O)=O)cc1 [Example 1, N-(3-amidinobenzyl)-N-isobutyl-N′-(2′-sulfamoylbiphenyl-4-yl)oxalamide]	8.00
CC(C)CN(Cc1cccc(C(=O)O)c1)C(=O)C(=O)Nc1ccc(-c2ccccc2S(N)(=O)=O)cc1 [Example 7, 3-{[Isobutyl-(2′-sulfamoylbiphenyl-4-ylaminooxalyl)amino]methyl}benzoic acid]	5.22

Reference: patent US20040220411A1, “Oxalic acid derivatives” (priority 2001, published 2004)
